The source of these data is PubChem BioAssay AID1259411 (Chemical Carcinogenesis Research Information System (CCRIS), 2018).

Active and inactive are the calls of the source. How the calls were made is not given here.

The data set deals with rodent carcinogenicity bioassays, tumor incidence. Nature of the data set: CCRIS carcinogenicity studies. The essentials:
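NCI-built, expert-reviewed records of carcinogenicity and related test outcomes (mutagenicity, tumor promotion/inhibition) compiled from published and report sources, historical span 1985-2011, not updated.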

Consider `Nc1ccn([C@H]2CC[C@@H](CO)O2)c(=O)n1`, for which the carcinogen call (Species: MOUSE, Strain/Sex: B6C3F1/FEMALE, Route: GAVAGE, Dose: 0, 500, 1000 MG/KG BW A DAY FOR 6 MO (STUDY DURATION: 6 MO), Dose: 0, 500, 1000 MG/KG BW A DAY FOR 6 MO (STUDY DURATION: 6 MO), Tumor Site: Type of Lesion: THYMUS: LYMPHOMA) is “active; positive”; the carcinogen call (Species: MOUSE, Strain/Sex: B6C3F1/FEMALE, Route: GAVAGE, Dose: 0, 500, 1000 MG/KG/D FOR 13 WK (STUDY DURATION: 13 WK), Dose: 0, 500, 1000 MG/KG/D FOR 13 WK (STUDY DURATION: 13 WK)) was “inactive; negative”; the carcinogen call (Species: MOUSE, Strain/Sex: B6C3F1/FEMALE, Route: GAVAGE, Dose: 0, 500, 1000 MG/KG/D FOR 13 WK FOLLOWED BY 4 WK OF RECOVERY (STUDY DURATION: 17 WK), Dose: 0, 500, 1000 MG/KG/D FOR 13 WK FOLLOWED BY 4 WK OF RECOVERY (STUDY DURATION: 17 WK)) is “inactive; negative”; the carcinogen call (Species: MOUSE, Strain/Sex: B6C3F1/FEMALE, Route: GAVAGE, Dose: 0, 500, 1000 MG/KG/D FOR 13 WK FOLLOWED BY 13 WK FOR RECOVERY (STUDY DURATION: 26 WK), Dose: 0, 500, 1000 MG/KG/D FOR 13 WK FOLLOWED BY 13 WK FOR RECOVERY (STUDY DURATION: 26 WK), Tumor Site: Type of Lesion: THYMUS: LYMPHOMA) was “active; positive”; the carcinogen call (Species: MOUSE, Strain/Sex: B6C3F1/FEMALE, Route: GAVAGE, Dose: 0, 1000 MG/KG BW A DAY FOR 3 MO FOLLOWED BY A 3-MO RECOVERY PERIOD (STUDY DURATION: 6 MO), Tumor Site: Type of Lesion: THYMUS: LYMPHOMA, SPLEEN: LYMPHOMA) was “active; positive”; the carcinogen call (Species: MOUSE, Strain/Sex: B6C3F1/MALE, Route: GAVAGE, Dose: 0, 500, 1000 MG/KG BW A DAY FOR 6 MO (STUDY DURATION: 6 MO), Dose: 0, 500, 1000 MG/KG BW A DAY FOR 6 MO (STUDY DURATION: 6 MO), Tumor Site: Type of Lesion: THYMUS: LYMPHOMA) is “active; positive”. The carcinogen call is “inactive; negative” (Species: MOUSE, Strain/Sex: B6C3F1/MALE, Route: GAVAGE, Dose: 0, 500, 1000 MG/KG/D FOR 13 WK (STUDY DURATION: 13 WK), Dose: 0, 500, 1000 MG/KG/D FOR 13 WK (STUDY DURATION: 13 WK)); “active; positive” (Species: MOUSE, Strain/Sex: B6C3F1/MALE, Route: GAVAGE, Dose: 0, 1000 MG/KG BW A DAY FOR 3 MO FOLLOWED BY A 3 MO RECOVERY PERIOD (STUDY DURATION: 6 MO), Tumor Site: Type of Lesion: THYMUS: LYMPHOMA); “active; positive” (Species: MOUSE, Strain/Sex: NIH SWISS/FEMALE, Route: GAVAGE, Dose: 0, 500, 1000 MG/KG BW A DAY FOR 6 MO (STUDY DURATION: 6 MO), Dose: 0, 500, 1000 MG/KG BW A DAY FOR 6 MO (STUDY DURATION: 6 MO), Tumor Site: Type of Lesion: THYMUS: LYMPHOMA, SPLEEN: LYMPHOMA, LYMPH NODE: LYMPHOMA, Tumor Site: Type of Lesion: THYMUS: LYMPHOMA, SPLEEN: LYMPHOMA, LYMPH NODE: LYMPHOMA); “active; positive” (Species: MOUSE, Strain/Sex: NIH SWISS/FEMALE, Route: GAVAGE, Dose: 0, 1000 MG/KG BW A DAY FOR 3 MO FOLLOWED BY A 3-MO RECOVERY PERIOD (STUDY DURATION: 6 MO), Tumor Site: Type of Lesion: THYMUS: LYMPHOMA, SPLEEN: LYMPHOMA, LYMPH NODE: LYMPHOMA, Tumor Site: Type of Lesion: THYMUS: LYMPHOMA, SPLEEN: LYMPHOMA, LYMPH NODE: LYMPHOMA); “active; positive” (Species: MOUSE, Strain/Sex: NIH SWISS/MALE, Route: GAVAGE, Dose: 0, 500, 1000 MG/KG BW A DAY FOR 6 MO (STUDY DURATION: 6 MO), Dose: 0, 500, 1000 MG/KG BW A DAY FOR 6 MO (STUDY DURATION: 6 MO), Tumor Site: Type of Lesion: THYMUS: LYMPHOMA); “active; positive” (Species: MOUSE, Strain/Sex: NIH SWISS/MALE, Route: GAVAGE, Dose: 0, 1000 MG/KG BW A DAY FOR 3 MO FOLLOWED BY A 3-MO RECOVERY PERIOD (STUDY DURATION: 6 MO), Tumor Site: Type of Lesion: THYMUS: LYMPHOMA).
Take `[Be]=[O]`: where the note is “Species: RABBIT, Route: INTRAVENOUS, INTRAMEDULLARY, Tumor Site: Type of Lesion: BONE: OSTEOSARCOMA”, the carcinogen call was “active; positive”.
On to `CCOc1ccc(NC(=O)CC(C)O)cc1` (centres undefined), for which the carcinogen call is, setting by setting: (Species: MOUSE, Strain/Sex: B6C3F1/FEMALE, Route: ORAL, Dose: 0, 0.75, 1.5% IN BASAL DIET FOR 76 WK FOLLOWED BY BASAL DIET ONLY FOR 8 WK (STUDY DURATION: 84 WK), Dose: 0, 0.75, 1.5% IN BASAL DIET FOR 76 WK FOLLOWED BY BASAL DIET ONLY FOR 8 WK (STUDY DURATION: 84 WK)) “inactive; negative”; (Species: MOUSE, Strain/Sex: B6C3F1/MALE, Route: ORAL, Dose: 0, 0.75, 1.5% IN BASAL DIET FOR 76 WK FOLLOWED BY BASAL DIET ONLY FOR 8 WK (STUDY DURATION: 84 WK), Dose: 0, 0.75, 1.5% IN BASAL DIET FOR 76 WK FOLLOWED BY BASAL DIET ONLY FOR 8 WK (STUDY DURATION: 84 WK), Tumor Site: Type of Lesion: KIDNEY: RENAL CELL ADENOMA, RENAL CELL CARCINOMA) “active; positive”.
`CC(C)N1C(=O)c2ccccc2NS1(=O)=O`: the carcinogen call was “inactive; negative; purity 93.3%” (Species: Mouse, Strain/Sex: B6C3F1/Female (70/sex/group), Route: Oral, Dose: 0, 100, 400, 2000 ppm in diet for 2 yr, Dose: 0, 100, 400, 2000 ppm in diet for 2 yr); “active; positive; purity 93.3%” (Species: Mouse, Strain/Sex: B6C3F1/Male (70/sex/group), Route: Oral, Dose: 0, 100, 400, 2000 ppm in diet for 2 yr, Dose: 0, 100, 400, 2000 ppm in diet for 2 yr, Tumor Site: Type of Lesion: Liver: Combined hepatocellular adenoma and carcinoma (13/49 in controls and 22/49 at highest dose)); “inactive; negative; purity 93.3%” (Species: Rat, Strain/Sex: Fischer 344/DU CRJ/Female (70/sex/group), Route: Oral, Dose: 0, 200, 800, 4000 ppm in diet for 2 yr, Dose: 0, 200, 800, 4000 ppm in diet for 2 yr); “inactive; negative; purity 93.3%” (Species: Rat, Strain/Sex: Fischer 344/DU CRJ/Male (70/sex/group), Route: Oral, Dose: 0, 200, 800, 4000 ppm in diet for 2 yr, Dose: 0, 200, 800, 4000 ppm in diet for 2 yr).
Take `c1ccc(-c2ccccc2)cc1`: the carcinogen call reads like this: (Species: MOUSE, Strain/Sex: CRJ:BDF1/FEMALE, Route: ORAL, Dose: 667, 2000, 6000 PPM IN DIET FOR 2 YRS (STUDY DURATION: 2 YRS), Dose: 667, 2000, 6000 PPM IN DIET FOR 2 YRS (STUDY DURATION: 2 YRS), Tumor Site: Type of Lesion: LIVER: HEPATOCELLULAR ADENOMA AND CARCINOMA) “active; positive”; (Species: MOUSE, Strain/Sex: CRJ:BDF1/MALE, Route: ORAL, Dose: 0, 667, 2000, 6000 PPM IN DIET FOR 2 YRS (STUDY DURATION: 2 YRS), Dose: 0, 667, 2000, 6000 PPM IN DIET FOR 2 YRS (STUDY DURATION: 2 YRS)) “inactive; negative”; (Species: RAT, Strain/Sex: F344/FEMALE, Route: ORAL, Dose: 0, 500, 1500, 4500 PPM IN DIET FOR 105 WK (STUDY DURATION: 105 WK ), Dose: 0, 500, 1500, 4500 PPM IN DIET FOR 105 WK (STUDY DURATION: 105 WK )) “inactive; negative”; (Species: RAT, Strain/Sex: F344/MALE, Route: ORAL, Dose: 0, 500, 1500, 4500 PPM IN DIET FOR 105 WK (STUDY DURATION: 105 WK ), Dose: 0, 500, 1500, 4500 PPM IN DIET FOR 105 WK (STUDY DURATION: 105 WK ), Tumor Site: Type of Lesion: URINARY BLADDER: TRANSITIONAL CELL PAPILLOMA, TRANSITIONAL CELL CARCINOMA) “active; positive”.
For the compound `O=C(Nc1ccccc1)Nc1ccnc(Cl)c1`, the carcinogen call was “inactive; negative” (Species: Mouse, Strain/Sex: CD-1/Female (60/Group), Route: Oral, Dose: 0, 10, 1000 mg/kg/day of 96.9% forchlorfenuron in diet for 18 mo, study duration 18 mo, Dose: 0, 10, 1000 mg/kg/day of 96.9% forchlorfenuron in diet for 18 mo, study duration 18 mo); “inactive; negative” (Species: Mouse, Strain/Sex: CD-1/Male (60/Group), Route: Oral, Dose: 0, 10, 1000 mg/kg/day of 96.9% forchlorfenuron in diet for 18 mo, study duration 18 mo, Dose: 0, 10, 1000 mg/kg/day of 96.9% forchlorfenuron in diet for 18 mo, study duration 18 mo); “inactive; negative” (Species: Rat, Strain/Sex: Strain not specified by Department of Pesticides Regulation/Female (70/Group), Route: Oral, Dose: 0, 9, 122, 518 mg/kg/day of 98.5% forchlorfenuron in diet for up to 2 yr, study duration 2 yr, Dose: 0, 9, 122, 518 mg/kg/day of 98.5% forchlorfenuron in diet for up to 2 yr, study duration 2 yr); “inactive; negative” (Species: Rat, Strain/Sex: Strain not specified by Department of Pesticides Regulation/Male (70/Group), Route: Oral, Dose: 0, 7, 93, 352 mg/kg/day of 98.5% forchlorfenuron in diet for up to 2 yr, study duration 2 yr, Dose: 0, 7, 93, 352 mg/kg/day of 98.5% forchlorfenuron in diet for up to 2 yr, study duration 2 yr).
In the case of `CCCc1ccc2c(c1)OCO2`, the carcinogen call reads like this: (Species: MOUSE, Route: ORAL, Tumor Site: Type of Lesion: LIVER, LUNG) “active; positive”; (Species: RAT, Route: ORAL, Tumor Site: Type of Lesion: ESOPHAGUS) “active; positive”.
